From publication PMC6108835, “Target-Based Discovery of an Inhibitor of the Regulatory Phosphatase PPP1R15B” (Cell, 2018) come the findings set out here.

One series has as its system R15b −/− cells. The experiment in a line: eIF2α phosphorylation and translation rates in R15b −/− MEF cells. It counts as cell-based, mouse. The following applies: 10 μM. How it is done:
HeLa or MEF cells (90,000 cells/mL) were plated in 12-well plates (1 mL/well). The following day cells were treated as indicated; the medium was removed, fresh medium containing compound added and incubated at 37°C for the times indicated. The time course was performed in reverse order to facilitate collecting all samples at the same time. At the end of treatment cells were washed two times with ice-cold PBS and lysed in 150 μL Laemmli Buffer. Lysates were transferred to 1.5 mL eppendorf tubes, boiled at 95°C for 5 min, sonicated and resolved on Bolt SDS-PAGE 4%–12% Bis-Tris gels (ThermoFisher Scientific). Proteins were transferred to the nitrocellulose membrane using the iBlot 2 system (ThermoFisher Scientific). Membrane was blocked in 5% skimmed milk for 30 min and then probed with primary antibodies followed by incubation with the appropriate horseradish peroxidase-conjugated secondary antibodies (Promega). Proteins were visualized using ECL Prime (GE Healthcare) and imaged in the Chemi-Smart 5000 (Vilber-Lourmat, France) or ChemiDoc Touch (BioRad). Bands were quantified using ImageJ (NIH, USA). […]
HeLa or MEF cells (90,000 cells/mL) were plated in 12-well plates (1 mL/well). […] The gels were then exposed to a Storage Phosphor Screen (GE Healthcare) and analyzed by phosphorimaging using a Typhoon Imager Scanner (GE Healthcare).

The subject of series [1] is HeLa cells. The experiment in a line: Assessment of translation rates (35S-methionine), HeLa cells. It counts as cell-based, human. The note with it: HeLa cells. How it is done:
HeLa or MEF cells (90,000 cells/mL) were plated in 12-well plates (1 mL/well). The following day cells were treated as indicated; the medium was removed, fresh medium containing compound added and incubated at 37°C for the times indicated. The time course was performed in reverse order to facilitate labeling all samples at the same time. After the treatment the cells were labeled with 100 μCi/mL ^35S-methionine (Hartmann Analytic) for 10 min at 37°C (300 μL fresh medium containing 3 μL ^35S-methionine was added to each well). Note that cells were not starved in methionine-free media before labeling with ^35S-methionine for monitoring protein synthesis. The labeled cells were then washed twice with ice-cold PBS and lysed in 120 μL Laemmli Buffer. Lysates were transferred to 1.5 mL eppendorf tubes, boiled at 95°C for 5 min, sonicated and resolved on Bolt SDS-PAGE 4%–12% Bis-Tris gels (ThermoFisher Scientific). Gels were then stained with InstantBlue (Expedeon) and after the gels had been imaged they were transferred to a 20% ethanol, 7% acetic acid, 4% glycerol solution for 10 min. This was to prevent the gels from cracking while drying. The gels were transferred to filter paper and dried using a gel dryer. The gels were then exposed to a Storage Phosphor Screen (GE Healthcare) and analyzed by phosphorimaging using a Typhoon Imager Scanner (GE Healthcare).

The test system of the next series is HD^82Q mice. The experiment in a line: Treatment of HD^82Q (N171-82Q) mice, model of Huntington's disease. It counts as in vivo, mouse. How it is done: To produce an experimental group, HD^82Q transgenic males were crossed with C3H/B6 F1 wild-type females. 4 weeks old treatment- and test-naive transgenic mice and their wild-type littermate controls were randomized in different groups and treated with Raphin1 for the indicated time. Only males HD^82Q were used. Mice weight was collected weekly or bi-weekly.
Mice were culled by cervical dislocation, a part of cortex was extracted, fresh-frozen in liquid nitrogen and kept at −80°C until use. Tissue was homogenized and lysed in Laemmli Buffer (1 mL for 0.5 mg tissue). Lysates were boiled at 95°C for 5 min, sonicated and resolved on Bolt SDS-PAGE 4%–12% Bis-Tris gels (ThermoFisher Scientific). Proteins were transferred to the nitrocellulose membrane (Bio-Rad). Membrane was blocked in 5% skimmed milk for 30 min and then probed with primary antibodies followed by incubation with the appropriate horseradish peroxidase-conjugated secondary antibodies (Promega). Proteins were visualized using ECL Prime (GE Healthcare) and imaged in the Chemi-Smart 5000 (Vilber-Lourmat, France). SDS-resistant huntingtin assemblies were quantified using ImageJ (NIH, USA). The huntingtin assemblies were analyzed using the huntingtin 2B4 antibody (Euromedex (#HU-2B4), 1:1,000).
Mice were culled by cervical dislocation, a brain was fresh frozen in the O.C.T. compound (VWR International) and sectioned (14 μm) using Cryostat (Leica CM3050 S). […]
For quantification, motor cortex was imaged using a Nikon TiE automated fluorescence microscope under the control of NIS Elements software (Nikon UK). Images were taken using a 40X 0.95 NA lens, fluorescence filter sets matched to Hoechst 33342 and Alexa 488 and an Andor Neo sCMOS camera. […] Images were analyzed using the ‘general analysis’ tool in NIS Elements. […] The total number of nuclei per field and the total number of inclusions inside nuclei per field were counted in each filed. […] To check for systematic bias in our analysis due to variations in sample processing we also measured the average fluorescence intensity across the whole field. […]

In series [2] the test system is HeLa cells. The experiment in a line: Monitoring cell viability (CellTox Green, IncuCyte). It counts as cell-based. How it is done:
HeLa cells (40,000 cells/mL) were plated in 96-well plates (0.1 mL/well). The following day the cells were treated with different concentrations of Raphin1, in triplicate, as indicated and incubated at 37°C for 48 hr. To monitor cell death 1:2,000 dilution of the CellTox Green Dye (Promega) was added to the medium. The growth of the cells was monitored over time and pictures taken every 2 hr (two per well) with the IncuCyte ZOOM system (Essen BioScience). The default software parameters for a 96-well plate (Corning) with a 10x objective were used for imaging and the images were analyzed by the IncuCyte ZOOM software (Essen BioScience). The software was used to calculate the confluency from the two non-overlapping images of each well at each time point. The phase confluency refers to the percentage of the image area that is occupied by cells. The green confluency refers to the percentage of the image area that fluoresces green. The CellTox Green Dye (Promega) preferentially stains dead cells’ DNA, but is excluded from viable cells. To assess the effect of Raphin1 on cell viability, the percentage of dead cells was calculated as follows: %ofdeadcells=Greenconfluency(%)atXhours/Phaseconfluency(%)atXhours×100

Setting [3] is: HD^82Q mice, 2 mg/kg daily from 4 weeks of age, 2-month-old.

As to `[H]/N=C(\N)NN=Cc1cccc(Cl)c1Cl` [Raphin1, (E)-2-(2,3-dichlorobenzylidene)hydrazine-1-carboximidamide], the “Measurable effects on eIF2α phosphorylation and translation” value in the series on R15b −/− cells is “abolished”. The “Protein synthesis (in words)” value with HeLa cells [1] (20 μM) was “persistent inhibition”; in the series with HeLa cells [1] (unstressed, 10 μM) it was “decreased”. For the same molecule, the “Raphin1-induced eIF2α phosphorylation and translation attenuation” value in the series with HeLa cells [1] (Raphin1 10 μM in the presence of the R15A inhibitor GBZ 10 μM) is recorded as “persisted”. Also, in the series with HD^82Q mice (2 mg/kg once a day by oral gavage from 4 to ∼10 weeks of age), the “Weight of HD^82Q mice” value is on record as “improved”. Also, the “Nuclear huntingtin inclusions in the cortex” value with HD^82Q mice (setting [3]) is on record as “decreased”. Further, the “SDS-insoluble huntingtin assemblies in cortex” value in the series on HD^82Q mice (setting [3]) is “decreased”. The “Toxicity to cells (% of dead cells)” value in the series with HeLa cells [2] (20 μM) is “toxic”; in the series on HeLa cells [2] (concentration corresponding to brain level after 2 mg/kg (∼1.5 μM), continuously applied for 48 hr), “not toxic”.
